{"source": "patent US8461389B2", "about": "“Psycho-pharmaceuticals” (University College Dublin, National University of Ireland, …, priority 2008, dated 2013)", "key": {"Sigma 1 receptor": {"biological_target": "T1, Sigma 1 receptor (Homo sapiens, UniProt Q99720)", "T1 construct": "Novascreen (contract screen)", "T1 sequence (Q99720 whole entry, species assumed)": "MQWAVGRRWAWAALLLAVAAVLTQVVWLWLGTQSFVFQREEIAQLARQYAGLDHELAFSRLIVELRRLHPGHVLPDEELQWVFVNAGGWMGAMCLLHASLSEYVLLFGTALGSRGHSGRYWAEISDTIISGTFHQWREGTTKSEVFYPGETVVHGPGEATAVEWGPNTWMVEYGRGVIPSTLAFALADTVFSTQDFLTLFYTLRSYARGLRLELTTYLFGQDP", "experiment": "Novascreen receptor affinity screen (competition with reference ligand), Sigma 1", "assay_type": "binding", "conditions": "1 μM Captodiamine competing with a reference ligand; read-out: percent target inhibition, Sigma 1 receptor", "protocol": "(§1) The Structure (FIG. 9A), receptor affinity (FIG. 9B), pharmacokinetics (FIG. 9C) and growth factor modulation (FIG. 9D) of Captodiamine are provided. Analysis of receptor affinities was performed by Novascreen™ and those displacing >20% of the natural ligand are indicated by the filled boxes. Blood levels of Captodiamine were determined by GC mass spectroscopy. In separate samples taken from a cannulated jugular at increasing time intervals following a single intraperitoneal injection of tha drug (5 mg/kg). Growth factor analysis was performed using tissue homogenates and ELISA assays specific for each growth factor (Promega). Values were analysed using a Student t-test and those with a p value<0.05 were accepted as significant and are indicated with an asterisk.\n(§2) The higher the target inhibition value, the greater the affinity Captodiamine has for this particular receptor as it displaces a greater proportion of the reference ligand. This assay is an automated high throughput assay performed on cell lines that express only one type of receptor and was carried out by Novascreen (www.novascreen.com). Receptor affinity is a good starting point for determining the mechanism of action for a particular compound."}, "dopamine D3 receptor": {"biological_target": "T2, dopamine D3 receptor (Homo sapiens, UniProt P35462)", "T2 construct": "Novascreen (contract screen)", "T2 sequence (P35462 whole entry, species assumed)": "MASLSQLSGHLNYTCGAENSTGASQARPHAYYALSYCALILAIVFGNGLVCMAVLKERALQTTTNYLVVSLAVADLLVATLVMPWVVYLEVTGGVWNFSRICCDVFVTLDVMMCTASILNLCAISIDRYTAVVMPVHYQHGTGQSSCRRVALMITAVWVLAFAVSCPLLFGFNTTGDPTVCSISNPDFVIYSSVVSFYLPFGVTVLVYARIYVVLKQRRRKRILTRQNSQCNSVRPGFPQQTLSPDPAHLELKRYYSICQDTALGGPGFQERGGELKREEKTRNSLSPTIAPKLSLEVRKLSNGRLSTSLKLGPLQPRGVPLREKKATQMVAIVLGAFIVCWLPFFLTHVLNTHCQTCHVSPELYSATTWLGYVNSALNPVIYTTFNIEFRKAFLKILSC", "experiment": "Novascreen receptor affinity screen (competition with reference ligand), dopamine D3", "assay_type": "binding", "conditions": "1 μM Captodiamine competing with a reference ligand; read-out: percent target inhibition, dopamine D3 receptor", "protocol": "as §1, §2"}, "C57B16 mice": {"test_system": "C57B16 mice", "experiment": "Novel object recognition (NOR) test", "assay_type": "in vivo", "source_text": "Before training the animals with objects, they are first allowed to acclimatize to the testing environment, a white Perspex box (30 cm by 20 cm) equipped with an overhead camera. After an acclimation session, the animals are ready for the training stage. This stage involves the introduction of two identical objects (Lego Duplo) to the environment before allowing the rodent to explore for a period of five minutes: Following the training period, the rodent is removed from the environment for a delay period which can range from 5 minutes to 24 hours, depending on the type of memory being tested. After the delay, the rodent is returned to the arena, where one of the original objects has been replaced by a new one, such as a glass container.\nThe amount of time that the rodents spends exploring each object can be calculated by hand or by using a computer program receiving input from the overhead camera. The literature describes a variety of methods for analyzing results. One technique involves dividing the time spent exploring the novel object by the total time spent exploring either object, yielding % novel exploration. An alternative technique is used to calculate the discrimination ratio, defined as the difference in exploration time for the objects divided by total exploration time. The method of analysis should be suited to the specific experimental setup. […]"}, "[1]": {"test_system": "GDNF (Glial cell derived neurotrophic factor)", "experiment": "GDNF levels in brain regions by ELISA after sub-chronic administration", "assay_type": "in vivo, mice", "conditions": "sub-chronic 7 day treatment, FIG. 9D", "protocol": "Neurotrophic factor concentration was determined by using an ELISA purchased from Promega Inc;\nThe Experimental protocol employed in the behavioural evaluation of Captodiamine is set out as follows: Three separate cohorts of C57B16 mice were employed in the behavioural evaluation of Captodiamine (see FIG. 7). Cohort 1 was used to evaluate the drug effect on prepulse inhibition, spatial learning, open-field and novel object recognition. Cohort 2 was used to evaluate drug effects on the forced swim test and the elevated X-maze. The behavioural tests were administered in sequence as per day number indicated in the bar of FIG. 7. The drug was administered by the intraperitoneal route and on the day of training the drug was administered after the behavioural analysis. […]\nThe Structure (FIG. 9A), receptor affinity (FIG. 9B), pharmacokinetics (FIG. 9C) and growth factor modulation (FIG. 9D) of Captodiamine are provided. […] Blood levels of Captodiamine were determined by GC mass spectroscopy. […] Values were analysed using a Student t-test and those with a p value<0.05 were accepted as significant and are indicated with an asterisk."}}, "data": [{"compound": "CCCCSc1ccc(C(SCCN(C)C)c2ccccc2)cc1", "note": "(stereo not drawn) [Captodiamine, 2-[(4-butylsulfanylphenyl)-phenyl-methyl]sulfanyl-N,N-dimethyl-ethanamin]", "values": [{"measurement": "inhibition at 1 µM", "setting": "Sigma 1 receptor", "result": "> 90", "unit": "%"}, {"measurement": "inhibition at 1 µM", "setting": "dopamine D3 receptor", "result": "> 80", "unit": "%"}, {"measurement": "time investigating objects during the training phase, Novel Object Recognition Task", "setting": "C57B16 mice; 3 mg/kg dose, one-tailed t-test", "result": "significantly longer investigating objects"}, {"measurement": "time exploring objects in training (day 1) and testing (day 2) phases, NOR", "setting": "C57B16 mice; FIG. 8 right hand panel", "result": "more time exploring objects"}, {"measurement": "GDNF expression levels, hypothalamus", "setting": "[1]", "result": "but not in either the hippocampus or the hypothalamus"}, {"measurement": "GDNF expression levels, prefrontal cortex", "setting": "[1]", "result": "significantly decreased"}]}]}
